Results reported in patent publication US20230106519A1, “GOLD(III)-BIGUANIDE PRODRUGS, METHODS OF PREPARATION AND USES THEREOF” (National University of Singapore, priority 2020, published 2023).
Values joined by “and” are separate entries in the source; they are usually repeats but may differ in a detail not shown here. Equal values may be shown once.

Tests used:
[1] = Reactivity towards glutathione, ligand release (HR-MS, UV-vis); assay type: physicochemical
From the text: NMR- and MS-based stability studies.
Intriguingly, the reactivity of Au^III-metformin complexes towards GSH was drastically different despite their similar structures.

[2] = Procedure: (§1) Animal experiments: 6-week-old female athymic nude mice were purchased from Invigo. Animals were housed in animal-holding units at Center for Comparative Medicine, Northwestern University in a pathogen-free environment at constant temperature in a 12/12-hour light/dark cycle. All animal procedures were carried out in accordance with a protocol approved by the Institutional Animal Care and Use Committee, Protocol number: IS00002999. Animals were acclimatized for 2 weeks following arrival before the beginning of experiments. Mice were allowed free access to food and water. […] MDA-MB-231 cells expressing firefly luciferase were collected by trypsinization and mixed with Matrigel (1:1) for fat pad injections. The MDA-MB-231 cell/matrigel mixture (100 μI) was injected into the fat pad of the fourth mammary glands on both sides of 6-week-old female athymic nude-Foxn1^nu mice (Envigo) at 2.5×10^5 cells/gland under ketamine/xylazine anesthesia (50-100/5-10 mg/kg). Ketaprofen and Buprenophrine SR were injected subcutaneously for pain management at 2-5 mg/kg and 0.5-1 mg/kg, respectively. The growth of tumors was monitored by live animal imaging. Once tumors became palpable (week 2 after tumor implantation), treatment was initiated. Animals were separated into two groups (7 mice in each group) and tumor dimensions were measured using a caliper by width×length (mm^2). […] Animals were sacrificed on week 6. Animals were controlled for distress development. Their weight changes were monitored every 2-3 days for 6 weeks. […] Statistical analysis was done by Student's unpaired T-test and One-way Anova test with post-hoc Dunnett test using GraphPad Prism 9 software.
The tolerability of the chosen dose level was judged based on the weight loss and clinical score.

MDA-MB-231 tumors [3] = tested on: MDA-MB-231 tumors
Procedure: as §1
Luciferase-transfected MDA-MB-231 cells were injected into […] 2 fat pads near inguinal nipples and tumor growth was controlled by bioluminescent imaging.

MDA-MB-231 cells [4] = tested on: MDA-MB-231 cells
Procedure: (§2) Inhibition of cell viability assay. The cytotoxicity of the compounds was determined by colorimetric MTT assay. The cells were harvested from culture flasks by trypsinization and seeded into Cellstar 96-well microculture plates at the seeding density of 6000 cells per well (6×10^4 cells/mL). TAMH and AC10 cells were seeded at 12000 and 5000 cells per well, respectively. After cells were allowed to resume exponential growth for 24 hours, they were exposed to drugs at different concentrations in media for 72 hours. The drugs were diluted in complete medium at the desired concentration and added to each well (100 μL) and serially diluted to other wells. After exposure for 72 hours, the media was replaced with MTT in media (5 mg/mL, 100 μL) and incubated for additional 45 minutes. Subsequently, the medium was aspirated and the purple formazan crystals formed in viable cells were dissolved in DMSO (100 μL). Optical densities were measured at 570 nm using the BioTek H1 Synergy microplate reader. […] Evaluation was based on means from at least three independent experiments, each comprising six replicates per concentration level. For experiments with inhibitors, MDA-MB-231 cells were seeded at the seeding density of 8000 cells per well (8×10^4 cells/mL).

MDA-MB-231 cells [5] = tested on: MDA-MB-231 cells; remark: listed apart in the source
Procedure: Mitochondrial bioenergetics (MitoStress assay): Oxygen Consumption Rate (OCR) was monitored by using Seahorse XF^e24 Cell MitoStress Test Kit (Seahorse Bioscience). Prior to the assay, XF sensor cartridges were hydrated. MDA-MB-231 cells were seeded onto XF^e24-well cell culture plates at a density of 4×10^4 cells/well in 250 μL DMEM complete growth medium and then incubated for 48 h at 37° C. in 5% CO2 incubator. The cells were subsequently exposed to compounds of interest at different concentrations for 24 hours. The wells were washed with 250 μL of pre-warmed Seahorse XF DMEM media, supplemented with 10 mM glucose, 1 mM sodium pyruvate and 2 mM glutamine, pH 7.4 and replaced with 525 μL of this media. The plate was incubated at 37° C. in a non-CO2 incubator for 1 hour before the measurement. Three baseline measurements of OCR were recorded and 1 μM of olygomycin (ATP synthase complex inhibitor), 1 μM of FCCP (ATP synthesis uncoupler trifluorocarbonylcyanide phenylhydrazone) and a mixture of 0.5 μM of antimycin-A (inhibitor of complex III) and 0.5 μM of rotenone (inhibitor of electron transfer from Fe-S center of complex I to ubiquinone) were added in sequence. OCR was measured using Seahorse XF^e24 Cell Bioanalyzer (Seahorse Biosciences). The media was removed from the wells and 60 μL of 0.1 M NaOH was added. After vigorous pipetting, the protein content was quantified by BCA assay and OCR was normalized per protein content.

MDA-MB-231 cells [6] = tested on: MDA-MB-231 cells; remark: listed apart in the source
Procedure: Glycolysis Stress Test assay: Extracellular acidification rate (ECAR) was monitored by using Seahorse XF^e24 Glycolysis Stress Test Kit (Seahorse Bioscience). Prior to the assay, XF sensor cartridges were hydrated. MDA-MB-231 cells were seeded onto XF^e24-well cell culture plates at a density of 4×10^4 cells/well in 250 μL DMEM complete growth medium and then incubated for 48 hours at 37° C. in 5% CO2 incubator. The cells were subsequently exposed to compounds of interest at different concentrations for 24 hours. The wells were washed with 250 μL of pre-warmed Seahorse XF DMEM media, supplemented with 100 mM glutamine, pH 7.4 and replaced with 525 μL of this media. The plate was incubated at 37° C. in a non-CO2 incubator for 1 hour before the measurement. Three baseline measurements of ECAR were recorded and 10 mM of glucose, 1 μM of olygomycin and 100 mM of 2-deoxyglucose (2-DG) were added in sequence. ECAR was measured using Seahorse XF^e24 Cell Bioanalyzer (Seahorse Biosciences). The media was removed from the wells and 60 μL of 0.1 M NaOH was added. After vigorous pipetting, the protein content was quantified by BCA assay and OCR was normalized per protein content.

BiP, CHOP, p-elF2α = settings: 0.5 and 2EC50, 2, 6 and 24 hours
Procedure: (§3) Western blotting. MDA-MB-231 cells were seeded into Cellstar 6-well plates (Greiner Bio-One) at a density of 60×10^4 cells/well (2 mL per well). After the cells were allowed to resume exponential growth for 24 hours, they were exposed to compounds of interest at various concentrations for 2, 6 and 24 hours. The cells were washed twice with PBS and lysed with RIPA buffer (50-100 μL) and kept for 5-10 minutes at 4° C. The samples were sonicated in ice bath (3 times for 30 seconds). The supernatant was then collected after centrifugation (1.3×10^4 rpm, 4° C. for 15 minutes) and total protein content of each sample was quantified via Bradford's assay. Equal quantities of protein (50 μg) were reconstituted in loading buffer (5× Laemmli Buffer with 5% DTT) and heated at 100° C. for 10 minutes. Subsequently, the protein mixtures were resolved on a 8%, 10% or 12% SDS-PAGE gel by electrophoresis (90 V for 30 minutes followed by 120 V for 60 minutes) and transferred onto a nitrocellulose membrane (200 mA for 2 hours). The protein bands were visualised with Ponceau S stain solution and the nitrocellulose membranes were cut into strips based on the protein ladder. The membranes were washed with a TBS-T wash buffer (0.1% Tween-20 in 1×PBS) 3 times for 5 minutes. […] Immune complexes were detected with Luminata HRP substrates and analysed using enhanced chemiluminescence imaging. […]

[7] = tested on: c-Jun N-terminal kinase (JNK); settings: MDA-MB-231, apparent after 24 hours
Procedure: as §3

[8] = tumor-bearing mice
Procedure: Organ distribution studies: At the experimental endpoint, the hearts were perfused with PBS immediately before the excision of the organs. Brain, liver, kidney, spleen, heart, lung, bone and tumor tissues were collected from each mouse and flash-frozen in liquid nitrogen. The organs of the vehicle-treated mouse were used for the measurements of the background. The organs were lyophilized for 4 days, weighed, mechanically minced and digested in 100 μl of ultrapure 65% HNO3 at 105° C. for 3 days. The resulting solution was diluted to 2% v/v HNO3 with ultrapure Milli-Q water. Gold content was measured by ICP-MS as described above.
Additionally, the Au biodistribution across various organs in tumor-bearing mice was assessed.

[9] = tested on: A2780 (ovarian carcinoma); test: MTT cytotoxicity assay, A2780; settings: read-out: EC50 A2780; MTT assay, exposure time 72 hours
Procedure: (§4) Human ovarian carcinoma cells A2780 and A2780cisR, and human breast adenocarcinoma MDA-MB-231 cells, murine hepatocytes TAMH and human cardiomyocytes AC10 were obtained from ATCC. […] The stock of cisplatin was commercially available clinical grade solution in saline buffer.
(§5) Inhibition of cell viability assay. The cytotoxicity of the compounds was determined by colorimetric MTT assay. The cells were harvested from culture flasks by trypsinization and seeded into Cellstar 96-well microculture plates at the seeding density of 6000 cells per well (6×10^4 cells/mL). TAMH and AC10 cells were seeded at 12000 and 5000 cells per well, respectively. After cells were allowed to resume exponential growth for 24 hours, they were exposed to drugs at different concentrations in media for 72 hours. The drugs were diluted in complete medium at the desired concentration and added to each well (100 μL) and serially diluted to other wells. After exposure for 72 hours, the media was replaced with MTT in media (5 mg/mL, 100 μL) and incubated for additional 45 minutes. Subsequently, the medium was aspirated and the purple formazan crystals formed in viable cells were dissolved in DMSO (100 μL). Optical densities were measured at 570 nm using the BioTek H1 Synergy microplate reader. […] Evaluation was based on means from at least three independent experiments, each comprising six replicates per concentration level.

[10] = tested on: LC3-II, p62, Ulk1 (Ser757); test: Western blot, autophagy markers
Procedure: Western blotting. MDA-MB-231 cells were seeded into Cellstar 6-well plates (Greiner Bio-One) at a density of 60×10^4 cells/well (2 mL per well). After the cells were allowed to resume exponential growth for 24 hours, they were exposed to compounds of interest at various concentrations for 2, 6 and 24 hours. The cells were washed twice with PBS and lysed with RIPA buffer (50-100 μL) and kept for 5-10 minutes at 4° C. The samples were sonicated in ice bath (3 times for 30 seconds). The supernatant was then collected after centrifugation (1.3×10^4 rpm, 4° C. for 15 minutes) and total protein content of each sample was quantified via Bradford's assay. Equal quantities of protein (50 μg) were reconstituted in loading buffer (5× Laemmli Buffer with 5% DTT) and heated at 100° C. for 10 minutes. Subsequently, the protein mixtures were resolved on a 8%, 10% or 12% SDS-PAGE gel by electrophoresis (90 V for 30 minutes followed by 120 V for 60 minutes) and transferred onto a nitrocellulose membrane (200 mA for 2 hours). The protein bands were visualised with Ponceau S stain solution and the nitrocellulose membranes were cut into strips based on the protein ladder. The membranes were washed with a TBS-T wash buffer (0.1% Tween-20 in 1×PBS) 3 times for 5 minutes. Subsequently, they were blocked in 5% BSA (w/v) in wash buffer for 1 hour and incubated with the appropriate primary antibodies in 5% BSA (w/v) in wash buffer at 4° C. overnight. The membranes were washed with a wash buffer 3 times for 7 minutes. After incubation with HRP-conjugated secondary antibodies in 2% BSA (w/v) in wash buffer (room temperature, 2 hours), the membranes were washed with a wash buffer 4× for 5 minutes. Immune complexes were detected with Luminata HRP substrates and analysed using enhanced chemiluminescence imaging. Actin was used as a loading control. […]
One of the hallmarks of autophagy was the conversion of cytosolic LC3-I to autophagosome-bound LC3-II which was monitored by Western Blotting.

[11] = tested on: A2780cisR (ovarian carcinoma); test: MTT cytotoxicity assay, A2780cisR
Procedure: as §4, §5

[12] = tested on: MDA-MB-231 (breast adenocarcinoma); test: MTT cytotoxicity assay, MDA-MB-231; settings: read-out: EC50 MDA-MB-231; MTT assay, exposure time 72 hours
Procedure: as §4, §5

MDA-MB-231 cells [13] = test: Cellular accumulation of Au by ICP-MS; settings: ICP-MS after 24 hour exposure at 1.4 μM
Procedure: Cellular accumulation of Au complexes was determined in MDA-MB-231 cells. Cells were seeded into Cellstar 6-well plates (Greiner Bio-one) at a density of 60×10^4 cells/well (2 mL per well). After the cells were allowed to resume exponential growth for 24 hours, they were exposed to compounds of interest at various concentrations for 24 hours at 37° C. The cells were washed twice with 1 mL of PBS and lysed with RIPA lysis buffer for 5-10 min at 4° C. The cell lysates were scraped from the wells and transferred to separate 1.5 mL microtubes. The supernatant was then collected after centrifugation (13000 rpm, 4° C. for 15 minutes) and total protein content of each sample was quantified via Bradford's assay. […] The resulting solution was diluted to 1 mL (2-4% v/v HNO3) with ultrapure Milli-Q water. Au content of each sample was quantified by ICP-MS. Re was used as an internal standard. […] Metal standards for calibration curve (0, 0.5, 1, 2, 5, 10, 20, 40 ppb) were freshly prepared before each measurement. All readings were made in triplicates in He mode.

[14] = tested on: TAMH (transforming growth factor-a transgenic mouse hepatocytes); test: MTT toxicity assay in hepatocytes TAMH; settings: read-out: EC50 TAMH, exposure time 72 hours
Procedure: (§6) Cell lines and culture conditions. Human ovarian carcinoma cells A2780 and A2780cisR, and human breast adenocarcinoma MDA-MB-231 cells, murine hepatocytes TAMH and human cardiomyocytes AC10 were obtained from ATCC.
Inhibition of cell viability assay. The cytotoxicity of the compounds was determined by colorimetric MTT assay. The cells were harvested from culture flasks by trypsinization and seeded into Cellstar 96-well microculture plates at the seeding density of 6000 cells per well (6×10^4 cells/mL). TAMH and AC10 cells were seeded at 12000 and 5000 cells per well, respectively. After cells were allowed to resume exponential growth for 24 hours, they were exposed to drugs at different concentrations in media for 72 hours. The drugs were diluted in complete medium at the desired concentration and added to each well (100 μL) and serially diluted to other wells. After exposure for 72 hours, the media was replaced with MTT in media (5 mg/mL, 100 μL) and incubated for additional 45 minutes. Subsequently, the medium was aspirated and the purple formazan crystals formed in viable cells were dissolved in DMSO (100 μL). Optical densities were measured at 570 nm using the BioTek H1 Synergy microplate reader. […] Evaluation was based on means from at least three independent experiments, each comprising six replicates per concentration level. […]

[15] = tested on: AC10 (human ventricular cardiomyocytes); test: MTT toxicity assay in cardiomyocytes AC10; settings: read-out: EC50 AC10; MTT assay, exposure time 72 hours
Procedure: as §6, §2

rat liver TrxR = biological target: T1, rat liver TrxR (Rattus norvegicus, UniProt O89049); test: Thioredoxin reductase inhibition, DTNB reduction assay; settings: read-out: IC50 TrxR; DTNB reduction assay, exposure time 30 min
T1 sequence (O89049 1-499): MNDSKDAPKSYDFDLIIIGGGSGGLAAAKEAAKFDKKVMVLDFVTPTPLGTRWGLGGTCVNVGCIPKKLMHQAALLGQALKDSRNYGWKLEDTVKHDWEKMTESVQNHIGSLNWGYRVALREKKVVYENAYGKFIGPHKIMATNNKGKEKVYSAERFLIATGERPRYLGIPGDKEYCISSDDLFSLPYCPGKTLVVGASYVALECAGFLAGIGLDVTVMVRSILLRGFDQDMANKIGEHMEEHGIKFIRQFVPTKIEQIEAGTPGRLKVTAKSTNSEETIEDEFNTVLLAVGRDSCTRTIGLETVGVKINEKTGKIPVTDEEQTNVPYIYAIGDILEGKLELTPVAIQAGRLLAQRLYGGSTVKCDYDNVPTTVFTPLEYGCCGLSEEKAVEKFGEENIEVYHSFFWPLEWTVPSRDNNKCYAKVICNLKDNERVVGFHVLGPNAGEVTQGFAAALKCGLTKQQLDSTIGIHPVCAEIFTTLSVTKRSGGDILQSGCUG
Procedure: Thioredoxin reductase inhibition assay. Assay was performed according to the protocol provided by the manufacturer. […] Compounds of interest were serially diluted at the separate 96-well plate and 4 μl of each concentration was added to the appropriate wells. The reaction mixture was incubated with gentle shaking (room temperature, 30 minutes). Subsequently, 6 μl of DNTB (100 mM) was added and incubated for an additional 3 minutes.
Compounds of interest at six different concentrations were incubated with the isolated rat liver TrxR enzyme in the presence of NADPH for 30 minutes, followed by 2 minutes incubation with the DNTB reagent.

MDA-MB-231 tumors [16] = test: Histopathological examination of H&E-stained tumors (QuPath)
insulin receptor (IR) = insulin receptor (IR) (Homo sapiens, UniProt P06213); test: Kinase screening, radioactive 33P-ATP filter-binding assay, IR; settings: 10 μM of 3met
insulin receptor (IR), sequence (P06213 1001-1382 limits assumed): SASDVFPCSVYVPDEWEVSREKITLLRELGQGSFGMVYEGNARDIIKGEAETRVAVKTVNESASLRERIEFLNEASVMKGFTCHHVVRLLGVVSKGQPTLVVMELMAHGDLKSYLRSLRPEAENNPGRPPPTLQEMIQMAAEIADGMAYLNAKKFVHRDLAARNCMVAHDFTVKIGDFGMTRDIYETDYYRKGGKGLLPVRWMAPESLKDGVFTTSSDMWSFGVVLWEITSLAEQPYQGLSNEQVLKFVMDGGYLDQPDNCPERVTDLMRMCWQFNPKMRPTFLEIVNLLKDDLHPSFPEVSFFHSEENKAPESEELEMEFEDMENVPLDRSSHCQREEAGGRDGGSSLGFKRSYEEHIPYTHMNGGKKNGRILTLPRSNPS
Procedure: (§7) Kinase screening was performed at the International Centre for Kinase profiling (University of Dundee, UK) according to literature procedure (Bain J, Plater L, Elliott M, Shpiro N, Hastie C J, McLauchlan H, et al. The selectivity of protein kinase inhibitors: a further update. Biochem J 2007; 408:297-315).

[17] = Stability in ammonium carbonate buffer by high resolution ESI-MS; settings: ammonium carbonate buffer pH 7.4, 37° C., 1, 3 and 24 hours
Procedure: NMR and mass spectrometric (MS) methods were employed to characterize the stability of Au complexes in DMSO and aqueous media. ^1H NMR stability studies were performed over the period of 6-10 days in d^6-DMSO and D2O (1met*).

[18] = biological target: protein kinase B beta (PKBβ) (Homo sapiens, UniProt P31751, S474D); test: Kinase screening, radioactive 33P-ATP filter-binding assay, PKBβ; settings: 10 μM of 3met
protein kinase B beta (PKBβ), sequence (P31751 120-481 S474D limits assumed): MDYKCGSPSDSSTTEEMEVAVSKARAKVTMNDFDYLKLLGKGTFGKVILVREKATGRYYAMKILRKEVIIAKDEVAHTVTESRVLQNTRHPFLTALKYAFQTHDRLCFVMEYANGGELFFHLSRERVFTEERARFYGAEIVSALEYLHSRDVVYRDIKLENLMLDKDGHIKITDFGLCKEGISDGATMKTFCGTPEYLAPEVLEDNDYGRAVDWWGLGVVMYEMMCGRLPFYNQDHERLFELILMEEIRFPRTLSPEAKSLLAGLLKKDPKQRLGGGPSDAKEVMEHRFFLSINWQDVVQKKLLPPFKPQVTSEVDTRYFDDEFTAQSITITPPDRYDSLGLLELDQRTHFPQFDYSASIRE
Procedure: as §7

[19] = biological target: extracellular signal-regulated kinase 1 (ERK1) (Homo sapiens, UniProt P27361); test: Kinase screening, radioactive 33P-ATP filter-binding assay, ERK1; settings: 10 μM of 3met
extracellular signal-regulated kinase 1 (ERK1), sequence (P27361 whole entry): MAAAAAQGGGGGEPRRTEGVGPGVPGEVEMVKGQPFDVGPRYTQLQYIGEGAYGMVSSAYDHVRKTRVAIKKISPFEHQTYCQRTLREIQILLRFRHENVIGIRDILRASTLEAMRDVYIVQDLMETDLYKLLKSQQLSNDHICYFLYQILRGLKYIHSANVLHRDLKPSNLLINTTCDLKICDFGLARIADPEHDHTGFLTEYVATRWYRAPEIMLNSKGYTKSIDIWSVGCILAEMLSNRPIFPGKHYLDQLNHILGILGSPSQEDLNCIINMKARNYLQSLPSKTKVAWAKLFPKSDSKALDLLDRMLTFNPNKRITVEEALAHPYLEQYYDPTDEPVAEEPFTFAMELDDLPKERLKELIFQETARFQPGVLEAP
Procedure: as §7

CN(C)C1=[NH+][Au-]2([NH]C(N)=N1)[c]1ccccc1C(=O)c1cccc[n+]12.F[P-](F)(F)(F)(F)F (stereo not shown) [Compound 3met]
decrease of peak area of 3met+ (M+) signal ([1]; 1 eq. GSH, ammonium carbonate): more than 27 fold | increase of peak area of metformin signal (m/z 130.1078) ([1]; 1 eq. GSH, ammonium carbonate, after 3 hours): more than 5 fold | reactivity towards GSH / ligand release in words ([1]; with GSH, HR-MS and UV-vis): time-dependent release of metformin | weight loss ([2]; 20 mg/kg, day 6): 11% and 10% | dose-limiting toxicity ([2]; histopathological changes): kidney and liver toxicity | maximum tolerated dose (MTD) ([2]; intraperitoneal route, daily for 4-5 days): 15 mg/kg | tumor growth (MDA-MB-231 tumors [3]; 15 mg/kg i.p., weeks 3, 4 and 5, vs vehicle): no tumor growth was observed after week 3 | deaths in drug-treated group (MDA-MB-231 tumors [3]; 15 mg/kg, 7 mice per group): Two mice died | kidney histopathology (MDA-MB-231 tumors [3]; H&E, endpoint, 5 weeks): distorted glomeruli, dilated tubules, edema exudate, light necrosis | liver histopathology (MDA-MB-231 tumors [3]; H&E, endpoint, 5 weeks): vacualization, fatty changes, periportal lymphoid infiltration and expansion of Disse space in A and B, and focal necrosis in C | increase of 3met activity in presence of 3-MA (MDA-MB-231 cells [4]; 3-methyladenine 2 mM, 24 hours): more than 2 times | abrogation of 3met-induced cell death by cycloheximide (MDA-MB-231 cells [4]; CHX 12.5 μM, 24 hours): ≈ 3.5 times | abrogation of 3met activity by SP600125 (MDA-MB-231 cells [4]; JNK inhibitor SP600125 20 μM): ≈ 1.7 fold | non-mitochondrial respiration (MDA-MB-231 cells [5]; 24 hours): not significantly inhibited | mitochondrial bioenergetic parameters (OCR) (MDA-MB-231 cells [5]; 24 hours, increasing concentrations): dose-dependent progressive decrease of all mitochondrial bioenergetic parameters | concentration significantly inhibiting mitochondrial respiration (MDA-MB-231 cells [5]; as low as): 1.5 µM | glycolytic parameters (ECAR), low concentration (MDA-MB-231 cells [6]; 0.05 μM, 24 hours): significant increase of all glycolytic parameters | glycolytic reserve (ECAR), higher concentration (MDA-MB-231 cells [6]; 1.5 μM, 24 hour exposure): significantly declined glycolytic reserve | CHOP expression over time (BiP, CHOP, p-elF2α): time-dependent increase of CHOP | JNK phosphorylation [7]: JNK phosphorylation already at 0.5 EC50 drug concentrations | Au biodistribution in words [8]: selectively accumulated in tumors | EC50 [9]: 150 ± 30 nM | Ulk1 phosphorylation at Ser757 ([10]; 2EC50, 24 hours): marked dephosphorylation of Ulk1 at Ser757 site | p62 levels ([10]; MDA-MB-231): increase of p62 levels | LC3-II expression ([10]; MDA-MB-231, concentration- and time-dependent): significantly enhanced the expression of LC3-II | RF (Resistance Factor) ([11]; IC50 (A2780cisR)/IC50 (A2780)): 4 | EC50 ([11]; read-out: EC50 A2780cisR, MTT assay, exposure time 72 hours): 530 ± 70 nM | EC50 [12]: 720 ± 80 nM | Cellular accumulation MDA-MB-231 (MDA-MB-231 cells [13]): 1.37 ± 0.48 nmol Au/mg protein | EC50 [14]: 2700 ± 700 nM | EC50 [15]: 7400 ± 3000 nM | IC50 (rat liver TrxR): 1.3 ± 0.3 nM | inflammatory cells infiltration of tumors (MDA-MB-231 tumors [16]; H&E): marked inflammatory cells infiltration | Area (MDA-MB-231 tumors [16]; single tumor image): 23769502 μm^2 and 27637537.7 μm^2 and 28709913 μm^2 | Necrosis % (MDA-MB-231 tumors [16]; single tumor image): 32.52% and 41% and 26.24% | Necrosis area (MDA-MB-231 tumors [16]; single tumor image): 7.73 mm^2 and 11.33 mm^2 and 7.533 mm^2 | Perimeter (MDA-MB-231 tumors [16]; single tumor image): 20891.3 μm and 25672.2 μm and 21813.3 μm | Tumor % (MDA-MB-231 tumors [16]; single tumor image): 60.11% and 34.58% and 66.37% | Tumor area (MDA-MB-231 tumors [16]; single tumor image): 14.29 mm^2 and 9.556 mm^2 and 19.05 mm^2 | inhibition of IR kinase (insulin receptor (IR)): 70% | stability, detection of molecular ion [M]+ [17]: stable for 24 hours | inhibition of PKBβ [18]: 100% | inhibition of ERK1 [19]: 90%
